Laboratory results taken from article PMC11016601, “Exploring the bioaccessibility and intestinal absorption of major classes of pure phenolic compounds using in vitro simulated gastrointestinal digestion” (Heliyon, 2024).
Where “and” joins values, the source holds several entries; their conditions need not be identical. Identical values can stand only once. Like-named read-outs stand apart in the source and are kept apart here. Marks after values point to notes of the source that are not given here.

How the values were obtained:
[1] = Simulation of intestinal absorption using a dialysis membrane (3 kDa) after in vitro SGD
Source text: HPLC-grade methanol, water, and acetonitrile were supplied by Fisher Scientific Chemicals. The enzymes α-amylase (A1031), pepsin from porcine stomach mucosa (P7012), pancreatin from porcine pancreas (P7545), and bile salts (B863) were purchased from Sigma-Aldrich (Taufkirchen, Germany). The rabbit gastric extract (RGE15) with gastric lipase activity was purchased from Lipolytech (Marseille, France). The ethanol was purchased from Merck (Algés, Portugal). A dialysis membrane with a molecular pore size of 3 kDa was purchased from Spectra/Pro (Spectrum Lab, Breda, Netherlands).
(§1) Mouth digestion of each PC solution (1 mL) was diluted in 0.8 mL of simulated salivary fluid (SSF) and α-amylase (75 U mL-1). Then, the mixture was incubated for 2 min at 37 °C under agitation (200 rpm). In order to start gastric digestion, pH was adjusted to 3.0 using 1 M aqueous HCl and then, a pepsin solution (2000 U mL-1) and simulated gastric fluid (SGF) were added. Subsequently, the mixture was incubated for 2h, at 37 °C and 130 rpm orbital agitation for the stomach digestion. Finally, the small intestine digestion simulation was performed after pH adjustment to 7.0 using 1 M aqueous […] and the addition of pancreatin (100 U mL-1), bile salts solution (10 mM) and simulated intestinal fluid (SIF), during 2 h, at 37 °C with 45 rpm orbital agitation. Natural small intestine absorption was also simulated, by placing the remaining sample in a dialysis membrane, and immersed in distilled water overnight at room temperature.
Furthermore, to determine the intestinal absorption, the aliquots collected inside the dialysis membrane were analyzed. The concentration of these samples (from inside of the membrane) corresponds to the amount of each PC that has not passed through to the outside of the membrane.
(§2) The values of B% and IA% were the average of the three replicates performed, with the calculated standard deviation.

[2] = In vitro simulated gastrointestinal digestion (SGD, INFOGEST 2.0): concentration and bioaccessibility by UHPLC-DAD-MSn; settings: for Bioaccessibility (%), initial solution (IS): reference
Description: Preliminary solubility tests in different solvents, namely water, sodium phosphate buffer (26.8 mM, pH 6.1), ethanol, and also a mixture of ethanol with both water and sodium phosphate buffer, were carried out for each PC (data not shown), to prevent erroneous data arising from compounds precipitation. Ethanol percentages used in these preliminary solubility tests were 10, 15, and 20% (v/v).
Each PC solubilized in ethanol:water (15% v/v) was then submitted to an in vitro SGD (INFOGEST 2.0), according to a standardized protocol (Fig. 2). In order to determine whether the interaction between the compounds and enzymes led to an underestimation of their content, each PC solution was submitted to the same digestion procedure, replacing the enzyme solutions with water, which were designed as controls, henceforth this will be the term used. Each sample and control were submitted to three independent in vitro digestion simulations, and after each digestion phase, a sample/control was collected and further analyzed and quantified by UHPLC-DAD-MSn.
as §1
At each sampling point, an aliquot (0.5 mL) from each of the three replicates was collected. The enzymatic activity was stopped immediately by adding pure methanol to each aliquot (1:1, v/v) to promote enzyme precipitation and subsequently centrifuged at 10 000 g and 4 °C for 5 min. The supernatants were filtered with a 0.2 μm nylon filter. To determine the concentration of each sample or control, it was considered the following dilution factor – 1:2, 1:4 and 1:8 for oral, gastric and intestinal digestion phase, respectively.
The bioaccessibility percentage (B%) of each PC was calculated using equation (1):(1) B(%)=[DS]/[IS]×100 where IS is the initial concentration of PCs in ethanol:water (15% v/v) solutions, DS is the concentration of each collected sample or control (without enzymes).
as §2
PCs were analyzed in a UHPLC system equipped with a variable loop Accela autosampler (set at 16 °C), an Accela 600 LC pump, and an Accela 80 Hz photo diode array detector (DAD) (Thermo Fisher Scientific, San Jose, CA, USA). Each sample was prepared in methanol:water (1:1, v/v) and filtered through a 0.2 μm nylon syringe filter. […] The mobile phase was composed of acetonitrile (A) and water:acetonitrile (99:1, v/v) (B), both with 0.1 % of formic acid. The gradient elution was performed as follows: 0–1min: 99% B; 1–17 min: 99-73% B, 17–20 min: 73-0% B, 20–25 min: 0–99% B, followed by re-equilibration of the column at 99% B for 4 min.

Caco-2 cell monolayers = settings: Caco-2; ref Tourniaiere et al. (2005); cited from earlier work
[3] = controls (without enzymes), gastric phase
[4] = controls (without enzymes), initial solution
[5] = controls (without enzymes), intestinal phase
[6] = controls (without enzymes), oral phase
[7] = samples with enzymes, after gastric digestion pH 3.0
[8] = samples with enzymes, after intestinal digestion pH 7.0
[9] = samples with enzymes, gastric phase
[10] = samples with enzymes, intestinal phase
[11] = samples with enzymes, oral phase
[12] = samples, initial ethanol:water (15% v/v) solution
[13] = samples with enzymes, after oral digestion

Compound	Concentration, dialysis phase (D) [1]	Concentration, dialysis phase (D) ([1]; pig) [µg/mL]	Bioaccessibility (%), oral phase (O) ([2]; 2 min)	Bioaccessibility (%), gastric phase (G) [2, 3]	Concentration, gastric phase (G) [2, 3] [µg/mL]	Concentration, initial solution (IS) [2, 4] [µg/mL]	Bioaccessibility (%), initial solution (IS) [2, 4]	Concentration, intestinal phase (I) [2, 5] [µg/mL]	Bioaccessibility (%), oral phase (O) [2, 6]	Concentration, oral phase (O) [2, 6] [µg/mL]	Concentration, gastric phase (G) [2, 7] [µg/mL]	Concentration, intestinal phase (I) [2, 8] [µg/mL]	Bioaccessibility (%), gastric phase (G) [2, 9]	Bioaccessibility (%), intestinal phase (I) [2, 10]	Bioaccessibility (%), oral phase (O) [2, 11]	Concentration, initial solution (IS) [2, 12] [µg/mL]	Bioaccessibility (%), initial solution (IS) ([2]; samples, initial solution)	Bioaccessibility (%), intestinal phase (I) [2, 5]	Concentration, oral phase (O) [2, 13] [µg/mL]	Intestinal absorption (IA%) [1]	further results
C[C@@H]1O[C@@H](O[C@H]2[C@H](Oc3cc(O)c4c(c3)O[C@H](c3ccc(O)cc3)CC4=O)O[C@H](CO)[C@@H](O)[C@@H]2O)[C@H](O)[C@H](O)[C@H]1O [NARN, naringin]	4.46 ± 0.44 µg/mL	17.29 ± 1.75	133.20 ± 16.03^ a %	132.25 ± 6.73^ a %	332.53 ± 16.91	251.44	100 ^a %	319.15 ± 27.85	128.18 ± 14.55^ a %	322.30 ± 36.59	365.14 ± 71.37	351.21 ± 53.27	145.2% and 145.22 ± 28.38^ a %	139.68% and 139.68 ± 21.19^ a %	133.2%	251.44	100 ^a %	–	–	–	Concentration, oral phase (O) ([2]; 2 min): 334.93 ± 40.32 µg/mL; Papp value of apical to basolateral direction (Caco-2 cell monolayers): low
O=C1C[C@@H](c2ccc(O)cc2)Oc2cc(O)cc(O)c21 [NAR, (+)-naringenin]	3.29 ± 0.96 µg/mL	17.50 ± 3.80	97.26 ± 5.50%	84.37% and 84.37 ± 4.60%	301.86 ± 16.45	357.76	100%	246.82 ± 120.35	102.62% and 102.62 ± 1.12%	367.13 ± 4.00	282.96 ± 24.94	233.10 ± 102.39	79.09% and 79.09 ± 6.97%	65.15% and 65.15 ± 28.62%	97.26%	357.76	100%	68.99% and 68.99 ± 33.64%	347.95 ± 19.67	–	–
Oc1cc(O)cc(O)c1 [PG, phloroglucinol]	225.29 ± 125.33 µg/mL	555.31 ± 145.46	92.78 ± 5.91^ b %	91.32% and 91.32 ± 3.79 ^a %	4765.51 ± 197.78	5218	100 ^a %	4952.79 ± 277.44	94.08% and 94.08 ± 1.84 ^a %	4909.58 ± 96.26	4910.12 ± 200.81	8339.90 ± 994.21	94.09% and 94.09 ± 3.85^ b %	159.82% and 159.82 ± 19.05^ a %	92.78%	5218	100^ b %	94.91% and 94.91 ± 5.32 ^a %	4841.66 ± 308.60	–	–
O=c1c(-c2ccc(O)cc2)coc2cc(O)ccc12 [DAID, daidzein]	below the detection limit	–	–	70.95% and 70.95 ± 3.71 ^a %	12.89 ± 0.67	18.17	100^ a %	25.20 ± 1.64	78.35% and 78.35 ± 24.88^ a %	14.24 ± 4.52	14.86 ± 1.98	28.72 ± 2.03	81.78% and 81.78 ± 10.87 ^a %	158.08% and 158.08 ± 11.20^ a %	119.06% and 119.06 ± 30.41^ a %	18.17	100^ a %	138.68% and 138.68 ± 9.01^ a %	21.63 ± 5.52	–	–
O=C(O[C@@H]1Cc2c(O)cc(O)cc2O[C@@H]1c1cc(O)c(O)c(O)c1)c1cc(O)c(O)c(O)c1 [EGCG, epigallocatechin-3-O-gallate]	below the detection limit	–	38.16 ± 12.23^ b %	61.53% and 61.53 ± 5.39 ^b %	1272.99 ± 111.59	2068.93	100^ a %	104.15 ± 16.86	34.13% and 34.13 ± 1.91 ^c %	706.03 ± 39.46	1473.22 ± 65.28	312.22 ± 46.76	71.21% and 71.21 ± 3.16 ^a %	15.09% and 15.09 ± 2.26 ^b %	38.16%	2068.93	100^ a %	5.03% and 5.03 ± 0.81 ^d %	789.50 ± 253.03	very high	–
O=c1oc2c(O)c(O)cc3c(=O)oc4c(O)c(O)cc1c4c23 [EA, ellagic acid]	below the detection limit	–	–	–	–	–	–	–	–	–	–	5.20 ± 0.10	–	–	–	–	–	–	4.78 ± 1.75	very high	–
